Results from paper PMC9785812 (Pharmaceutics, 2022).
“And” between values parts separate entries of the source, which are not always exact repeats. Equal entries are not always repeated.

Experiments:
SSTR2 in CA20948 cells = conditions: cited from earlier work
[1] = Ex vivo biodistribution in healthy BALB/c mice; design: species or system mouse
Protocol: Quantification of activity was performed with an automated gamma counter equipped with a 3-in NaI(Tl) detector coupled to a multichannel analyzer (2480 Wizard^2, Perkin Elmer, Zaventem, Belgium). The results were corrected for background signal, physical decay during counting and detector dead time.
All animal experiments were performed in compliance with the Ethical Committee Animal Studies of Medanex Clinic (EC MxCl 2020-163 and EC MxCl 2021-173), the Belgian laboratory animal legislation and the European Communities Council Directive of 22 September 2010 (2010/63/EU). Male BALB/c and NMRI nude mice were purchased from Janvier (Bio Services, Uden, The Netherlands) and housed in ventilated cages under standard laboratory conditions (12 h light/dark cycle) at the animal facility of SCK CEN. All animals had access to food and water ad libitum.
Additionally, similar biodistribution studies were performed with free (unlabeled) [^153Sm]SmCl3 to identify the organs with ^153Sm accumulation in case of release from the complex. […] The mice were sacrificed by an overdose pentobarbital (200 µL of 60 mg/mL) 1, 4, 24 and 72 h post-injection (p.i.) (n = 3–4 per time point). Blood was collected via cardiac puncture. Organs of interest were collected in tared tubes and weighed. The activity in the different organs was measured in the gamma counter. For the calculation of the total activity in the blood, bone and muscle, the masses were assumed to be, respectively, 7, 12 and 40% of the total body mass. Data were expressed as a percentage of injected activity (%IA) and standardized uptake value (SUV). %IA was calculated as (counts per min (cpm) in organ)/(IA converted to cpm) × 100. SUV was calculated as (activity in cpm in organ/weight of organ in g)/(IA/total body weight in g).

[2] = 1 h p.i., healthy male BALB/c mice, ~2-3 MBq i.v., mean ± SD, n = 3-4
[3] = 4 h p.i., healthy male BALB/c mice, ~2-3 MBq i.v., mean ± SD, n = 3-4
[4] = 24 h p.i., healthy male BALB/c mice, ~2-3 MBq i.v., mean ± SD, n = 3-4
[5] = 72 h p.i., healthy male BALB/c mice, ~2-3 MBq i.v., mean ± SD, n = 3-4
[6] = mouse, in vivo, iv, listed as [153Sm]SmCl3

O=C([O-])CN(CCN(CC(=O)[O-])CC(=O)[O-])CCN(CC(=O)[O-])CC(=O)[O-].[177Lu+3] [[^177Lu]Lu-DTPA]
affinity towards SSTR2 (SSTR2 in CA20948 cells): complete lack of affinity

[153Sm+3].[Cl-].[Cl-].[Cl-] [[^153Sm]SmCl3, reference compound]
Blood SUV [1, 2]: 2.0 ± 0.5 | Heart SUV [1, 2]: 0.7 ± 0.2 | Lungs %IA [1, 2]: 0.9 ± 0.2 %IA | Lungs SUV [1, 2]: 1.0 ± 0.2 | Pancreas SUV [1, 2]: 0.2 ± 0.1 | Stomach %IA [1, 2]: 0.5 ± 0.2 %IA | Bone %IA [1, 3]: 20.1 ± 6.7 %IA | Heart %IA [1, 3]: 0.2 ± 0.0 %IA | Intestines %IA [1, 3]: 1.7 ± 0.2 %IA | Stomach %IA [1, 3]: 0.2 ± 0.0 %IA | Blood %IA [1, 4]: 0.2 ± 0.0 %IA | Heart SUV [1, 4]: 0.2 ± 0.0 | Intestines %IA [1, 4]: 1.0 ± 0.2 %IA | Lungs SUV [1, 4]: 0.2 ± 0.0 | Stomach %IA [1, 4]: 0.2 ± 0.2 %IA | Lungs SUV [1, 5]: 0.2 ± 0.0 | Muscle %IA [1, 5]: 0.9 ± 0.2 %IA | Stomach %IA [1, 5]: 0.2 ± 0.1 %IA | Bone SUV ([1]; mouse, in vivo, iv): 3.1 ± 1.3 | Brain SUV ([1]; mouse, in vivo, iv): 0.0 ± 0.0 | Liver SUV ([1]; mouse, in vivo, iv): 7.7 ± 1.8 | Lungs SUV ([1]; mouse, in vivo, iv): 0.4 ± 0.0 | Bone %IA [1, 6]: 12.1 ± 0.3 %IA and 17.6 ± 3.7 %IA and 21.9 ± 8.9 %IA | Bone SUV [1, 6]: 1.7 ± 0.0 and 2.9 ± 1.0 and 2.5 ± 0.5 | Excreted %IA [1, 6]: 26.0 ± 8.0 %IA and 21.4 ± 3.9 %IA and 24.2 ± 4.2 %IA and 34.8 ± 11.6 %IA | Intestines %IA [1, 6]: 2.4 ± 0.5 %IA and 1.5 ± 0.5 %IA | Liver %IA [1, 6]: 35.9 ± 6.4 %IA and 54.3 ± 5.3 %IA and 53.9 ± 4.2 %IA and 42.9 ± 9.2 %IA | Liver SUV [1, 6]: 6.9 ± 0.5 and 11.2 ± 1.3 and 10.5 ± 0.8
